# Measurements: PMC10787067, “EBF2 Links KMT2D‐Mediated H3K4me1 to Suppress Pancreatic Cancer Progression via Upregulating KLLN” (Advanced Science, 2023)
# What was measured:
# [1] = test system: EBF2; assay: Co-IP with H3K4me1 antibodies from GSK-LSD1-treated SW1990 cell lysates; format: cell-based, Human; conditions: vs vehicle, Figure 5P
# Experimental: Co‐immunoprecipitation assay was performed as described previously.^[ [61] ^] Briefly, SW1990 cells were transfected with indicated constructs or treated with GSK‐LSD1, washed with cold phosphate buffered saline (PBS), and lysed with cold cell lysis buffer. Then, the lysates were incubated with appropriate specific antibodies or normal rabbit IgG at 4 °C overnight in constant rotation, followed by the addition of protein A/G Sepharose beads and incubation for 2 h at 4 °C. The beads were then washed five times by the lysis buffer. Bead‐bound proteins were resolved by SDS‐PAGE and detected by immunoblotting using indicated antibodies.
# [2] = test system: SW1990 cells; assay: Colony-formation and CCK-8 proliferation, SW1990; format: cell-based, Human; conditions: vs Vehicle, p < 0.01, Figure 5F,G
# Experimental: (§1) Cell proliferation was determined by Cell Counting Kit‐8 (CCK‐8, Yeasen) and EdU Cell Proliferation Assay kit (Ribobio, Guangzhou, China). Colony formation was observed by staining with 0.1% crystal violet (Sangon Biotechnologies Inc., Shanghai, China). Cell migration and invasion were assessed using […] pore Transwell chambers with (for invasion assay) or without Matrigel (for migration assay). For migration assay, 5 × 10^4 SW1990 or 3 × 10^4 PANC‐1 cells were seeded into the upper chamber of the Transwell apparatus (Corning, USA) in serum‐free medium, and the medium supplemented with 10% FBS was added to the bottom chamber. For invasion assay, 10 × 10^4 SW1990 or 6 × 10^4 PANC‐1 cells were seeded into the upper Corning BioCoat Matrigel invasion chamber. After 24 h, the cells on the upper surface that had not passed through the polycarbonate filter were removed using a moistened cotton swab; the cells having migrated to the lower membrane surface were fixed in 100% methanol for 10 min, stained with 0.4% crystal violet for 15 min, and counted under a microscope (Nikon, Japan) at ×100 magnification. The cells were manually counted using Image J software. Three independent experiments were performed.
# [3] = test system: SW1990 cells; assay: RNA-seq of GSK-LSD1-treated SW1990 cells; format: cell-based, Human; conditions: fold change > 1.5, p < 0.05, Figure 4A
# Excerpt: Total RNA was isolated from cells using RNAiso plus (Takara). The quantity and integrity of RNA were separately evaluated using the K5500 (Beijing Kaiao, China) and the Agilent 2200 TapeStation (Agilent Technologies, USA). Briefly, the mRNA was enriched by OligodT NEBNext Poly(A) mRNA Magnetic Isolation Module (NEB, USA), and then fragmented into ≈200 bp. Subsequently, the RNA fragments were subjected to first and second strand cDNA synthesis, followed by adaptor ligation and enrichment according to instructions of NEBNext Ultra RNA Library Prep Kit for Illumina. The purified library products were evaluated by the Agilent 2200 TapeStation and Qubit (Thermo Fisher Scientific, USA). The libraries were sequenced by Illumina (Illumina, USA) with paired‐end 150 bp (Ribobio, China). The clean reads were acquired after discarding low‐quality reads or those containing adapter and ploy‐N. HISAT2 was employed to calibrate clean reads to human reference genome hg38 with default parameters. HTSeq was used to convert aligned short reads into read counts for each gene model. Differential gene expression was assessed by DESeq2 using read counts as input.^[ [62] ^] The Benjamini–Hochberg multiple test correction method was employed. […] RNA‐seq data sets were available (GEO accession number GSE237363).
# [4] = test system: SW1990 cells; assay: KLLN rescue experiments (CCK-8, colony-formation, Transwell), SW1990; format: cell-based, Human; conditions: p < 0.01, Figure 5Q-S
# Experimental: as §1
# [5] = test system: PANC‐1 cells; assay: Transwell migration and invasion, PANC-1; format: cell-based, Human; conditions: 24 h, vs Vehicle, p < 0.01, Figure S4G
# Experimental: as §1
# [6] = test system: H3K4me1; assay: IHC of H3K4me1 in PDX tumors; format: in vivo, Human (xenograft in immunodeficient nude mice); conditions: vs control, Figure 5O
# Experimental: PDAC and tumor adjacent tissues were obtained from the Second Affiliated Hospital of Nanjing Medical University. Ninety pairs of ductal adenocarcinoma and adjacent normal pancreatic tissue sections (HPanA180Su03) were obtained from Shanghai Outdo Biotech (National Human Genetic Resources Sharing Service Platform with code No. XT20‐021, Shanghai, China), under the approval by the Ethics Committee of Shanghai Outdo Biotech. IHC staining was performed on paraffin‐embedded sections of biopsies from ductal adenocarcinoma patients and controls according to standard protocols (CST). […] All pancreatic cancer tissue sections were examined by two experienced pathologists, and the EBF2, KMT2D or KLLN stained in the tissue was scored independently using the H‐score system by two pathologists blinded to the clinical data. […] For the Pearson correlation scatter plot of molecules in ductal adenocarcinoma, the H score was calculated by adding the multiplication product of the different staining intensities in category A (0–3) with the percentage of positive cells, i.e., H score (0–300 scale) = 3 × (% at 3+) + 2 × (% at 2+) + 1 × (% at 1+). […] The between‐group difference in the overall survival was evaluated by the log‐rank test. The correlation between EBF2, KMT2D, and KLLN expression in ductal adenocarcinoma was assessed via Pearson correlation analysis. […]
smiles,measurement,setting,value
c1ccc([C@@H]2C[C@H]2NC2CCNCC2)cc1 [GSK‐LSD1],EBF2 co-immunoprecipitated with H3K4me1,[1]; H3K4me1 antibodies,co‐immunoprecipitated more EBF2
same,EBF2 expression,[1]; concentration not given,without affect EBF2 expression
same,proliferation,[2],significantly inhibited
same,upregulated genes overlapping between EBF2-OE and GSK-LSD1-treated cells,[3],17
same,tumor-suppressive phenotype of GSK-LSD1 on knockdown of KLLN,[4],markedly attenuated
same,invasion,[5]; Transwell with Matrigel,significantly inhibited
same,migration,[5]; Transwell without Matrigel,significantly inhibited
same,H3K4me1 expression in PDX tumors,[6],significantly upregulated
